According to patent publication US20230406906A1, “SERPIN PEPTIDES AND METHODS OF USING THE SAME” (SERPIN PHARMA, LLC, priority 2022, published 2023):

What was measured:
STAT6 = experiment: IL-13 stimulated STAT6 phosphorylation in esophageal EPC2 cells (western blot); type: cell-based, Human; details: 30 minutes post IL-13 induction
Procedure: Esophageal EPC2 cells were treated with vehicle (ddw), A1AT or SP163M. Cells were collected at time-points indicated and western blot analysis of phospho-specific STAT6 was analyzed. […] Using CRISPER/CAS9 technology, an LRP1 knockout esophageal EPC2 cell line was created.

LRP1 = molecular target: T1, LRP1 (Rattus norvegicus, UniProt G3V928); experiment: Cell signaling analysis in PC12 cells (phospho-ERK1/2, phospho-Akt immunoblot); type: cell-based
T1 construct: host or cells: rat PC12 cells
Procedure: Cell signaling analysis: Rat PC12 cells were purchased from ATCC (CRL-1721). PC12 cells were maintained in high glucose DMEM (Gibco, USA) containing 10% heat-inactivated FBS (Gibco, USA), 5% HyClone heat-inactivated horse serum (Cytiva, USA), penicillin (100 units/ml) and streptomycin ([…]) in 6-well plates that were pre-coated with 0.01 mg/ml type IV collagen (Sigma-Aldrich, St. Louis, MO, USA). Cells were transferred to serum-free medium (SFM) 4 h prior to adding effectors, and then treated with SP163M (2.4, 24 or 240 nM); EI-tPA (12 nM), NGF (0.36 nM), or vehicle (PBS) for 10 min. In some cases, cells were pre-incubated with the competitive antagonist of LRP1, GST-RAP (150 nM) for 15 min or electroporated using the Rat Neuron Nucleofector Amaxa Kit (Lonza Biosciences) and incubated with siRNA to silence LRP1 expression (siLRP1; M-094191-01-0010, Dharmacon) for 48 h. Control cells were transfected with non-targeting control (NTC) siRNA (NTC; D-001810-10-05, Dharmacon). Cells were rinsed with ice-cold PBS and proteins were extracted in RIPA buffer (20 mM sodium phosphate, 150 mM NaCl, pH 7.4, 1% Triton X-100, 0.5% sodium deoxycholate, 0.1% SDS) supplemented with protease and phosphatase inhibitors (Roche Diagnostics, USA). After 30 min on ice, lysates were centrifuged at 15000×g for 5 min, supernatant collected and stored at −20° C. Equal amounts of protein from cell lysates (20 μg), as determined by BCA Protein Assay (ThermoFisher Scientific, Waltham, MA, USA), were subjected to 10% SDS-PAGE and electro-transferred to nitrocellulose membranes. The membranes were blocked with 5% nonfat dried milk and then incubated with primary anti-phospho-AKT (Cell Signaling Technology, Danvers, MA, USA; cat #9271S; 1:1000), anti-phospho-ERK1/2 (Cell Signaling Technology, Danvers, MA, USA; cat #9101S; 1:1000), anti-LRP1 (Cell Signaling Technology, Danvers, MA, USA; cat #64099S; 1:1000) or anti total-ERK1/2 (Cell Signaling Technology, Danvers, MA, USA; cat #91012S; 1:1000). Immunoblots were developed using Radiance, Radiance Q, and Radiance Plus chemiluminescent substrates and imaged using a BioRad ChemiDoc Imaging System (Bio-Rad, Hercules, CA, USA).

C57BL/6J mice = experiment: Intraplantar capsaicin model of acute nociception; type: in vivo; details: male mice, 2 μg/g 1 h before capsaicin, 10 min
Procedure: For the capsaicin studies, male (n=41) and female (n=37) mice were acclimated to the behavior testing facility for at least 1 h. Capsaicin was dissolved in 20% (2-hydroxypropyl)-β-cyclodextrin (Sigma-Aldrich, St. Louis, MO, USA) solution. […] Subsequently, 10 μl of 2 μg/μl capsaicin solution was injected into the plantar area of left hind paw. Immediately after capsaicin injection, mice were placed in a plexiglass box. Two observers, blinded to treatments, recorded the time spent licking and flinching the left hind paw over 10 min.

NFκB [1] = experiment: NFκB reporter assay (THP1-XBlue-MD2-CD14 cells, LPS, SEAP read-out); type: cell-based; details: peptide 50 μg/ml before LPS 5 ng/ml, overnight
Procedure: The reporter cells (THP1-XBlue-MD2-CD14 cells) were treated with each peptide (50 μg/ml) before being insulted with LPS (5 ng/ml) and incubated overnight. The NFκB inducible Secreted Embryonic Alkaline Phosphatase (SEAP) was measured in the supernatant and read for absorbance.

[2] = molecular target: LRP1 (low-density lipoprotein receptor-related protein 1) on rat PC12 cells (rat) (UniProt G3V928); experiment: cell-based or functional assay
NFκB [3] = experiment: NFκB reporter assay (THP1-XBlue-MD2-CD14 cells, LPS, SEAP read-out); type: cell-based; details: without LPS
mice [4] = experiment: MC903 AD-like inflammatory skin model, topical treatment (dermatitis score, ear volume, scratching); type: in vivo
Procedure: SP16 (in 70% ethanol) was applied topically to the ears on the days of the MC903 applications (MC903+SP16). Drug vehicle (70% EtOH) was applied to control animals (MC903) and normal control animals (NC) received EtOH in place of MC903. In-life parameters: Dermatitis score (FIG. 16A) and ear volume (FIG. 16B) measured on days 0, 3, 7, 9, 11 and 14. […] Clinical Dermatitis Score (score 0-4 for each parameter)—erythema, scale/dryness, edema, excoriation/erosion (total score 0-16).
(§1) Mice were treated with SP16 in 70% EtOH (MC903+SP16) or drug vehicle (MC903). Normal control (NC) mice were treated with EtOH only. Ears were measured for PAR2 protein expression through western blot analysis (quantitative analysis after normalization to beta-actin shown) (n=3-5). TSLP was measured in both the ears and serum by ELISA (N=3-5). Scratching was assessed over a 3 minute period after a 5-minute acclimatization period and the number of scratches are shown (n=3). IL-4 was measured in ear lysate via ELISA (N=3-5).

TSLP [5] = experiment: MC903 AD model, TSLP in ears and serum by ELISA; type: in vivo; details: topical, vs MC903 treated mice
Procedure: as §1

IL-4 = experiment: MC903 AD model, IL-4 in ear lysate via ELISA; type: in vivo, mice; details: topical
Procedure: as §1

PAR2 = experiment: MC903 AD model, PAR2 protein expression in ears (western blot); type: in vivo, mice; details: topical, normalized to beta-actin
Procedure: as §1

TSLP [6] = experiment: Poly I:C-induced TSLP production by SPINK7 knockout EPC2 cells (ELISA); type: cell-based, Human; details: SPINK7 knockout esophageal cells, Poly I:C 5 μg/ml, 8 hours
Procedure: FIG. 12A: Poly I:C-induced TSLP production by SPINK7 knockout EPC2 cells (Human esophageal epithelial cells). SPINK7 KO cells and control cells were plated in high calcium and high density, for 48 hours before being treated with SP16 or 7G and Poly I:C (5 μg/ml, or untreated) for 8 hours. TSLP production in the supernatant was measured by ELISA. FIG. 12B: primary esophageal epithelial cells (EPC2) were treated with SP16 and then stimulated with IL-13, a TH2 response mediated cytokine, to induce CCL26.
SP16 reduces several key cytokines involved in allergic responses. Upon knockout of SPINK7, esophageal epithelial cells release exacerbated levels of TSLP. TSLP is a key mediator of immune cell responses upon activation to an insult such as allergens.

CCL26 = CCL26 release by esophageal epithelial cells (EPC2); type: cell-based, Human
CCL24 = experiment: OVA-challenge allergic inflammation model, BALF CCL24 via ELISA; type: in vivo; details: treated during OVA challenge phase, sensitized mice
Procedure: (§2) Mice were subjected to the OVA-challenge allergic inflammation model and treated with vehicle or SP16 during the challenge phase. The bronchoalveolar lavage fluid (BALF) was analyzed for cytokines via ELISA.

IL-1a = experiment: OVA-challenge allergic inflammation model, BALF IL-1a via ELISA; type: in vivo; details: treated during OVA challenge phase, sensitized mice
Procedure: as §2

IL-2 = experiment: OVA-challenge allergic inflammation model, BALF IL-2 via ELISA; type: in vivo; details: treated during OVA challenge phase, sensitized mice
Procedure: as §2

mice [7] = experiment: OVA-induced allergic inflammation model, eosinophils in BALF by flow cytometry; type: in vivo
Procedure: FIG. 15A: mice were subjected to the OVA-challenge allergic inflammation model and treated with vehicle, SP16, or A1AT during the challenge phase. The BALF was collected and analyzed for the percent of eosinophils and compared to saline (non-challenged) mice, vehicle OVA induced mice, or SP16 treated OVA induced mice.
The impact of SP16 treatment on eosinophilic infiltration in mice was assessed using the OVA-induced allergic inflammation model. The number of eosinophils in the bronchoalveolar lavage fluid was quantified by flow cytometry.

T1 sequence (G3V928 20-3944 limits assumed): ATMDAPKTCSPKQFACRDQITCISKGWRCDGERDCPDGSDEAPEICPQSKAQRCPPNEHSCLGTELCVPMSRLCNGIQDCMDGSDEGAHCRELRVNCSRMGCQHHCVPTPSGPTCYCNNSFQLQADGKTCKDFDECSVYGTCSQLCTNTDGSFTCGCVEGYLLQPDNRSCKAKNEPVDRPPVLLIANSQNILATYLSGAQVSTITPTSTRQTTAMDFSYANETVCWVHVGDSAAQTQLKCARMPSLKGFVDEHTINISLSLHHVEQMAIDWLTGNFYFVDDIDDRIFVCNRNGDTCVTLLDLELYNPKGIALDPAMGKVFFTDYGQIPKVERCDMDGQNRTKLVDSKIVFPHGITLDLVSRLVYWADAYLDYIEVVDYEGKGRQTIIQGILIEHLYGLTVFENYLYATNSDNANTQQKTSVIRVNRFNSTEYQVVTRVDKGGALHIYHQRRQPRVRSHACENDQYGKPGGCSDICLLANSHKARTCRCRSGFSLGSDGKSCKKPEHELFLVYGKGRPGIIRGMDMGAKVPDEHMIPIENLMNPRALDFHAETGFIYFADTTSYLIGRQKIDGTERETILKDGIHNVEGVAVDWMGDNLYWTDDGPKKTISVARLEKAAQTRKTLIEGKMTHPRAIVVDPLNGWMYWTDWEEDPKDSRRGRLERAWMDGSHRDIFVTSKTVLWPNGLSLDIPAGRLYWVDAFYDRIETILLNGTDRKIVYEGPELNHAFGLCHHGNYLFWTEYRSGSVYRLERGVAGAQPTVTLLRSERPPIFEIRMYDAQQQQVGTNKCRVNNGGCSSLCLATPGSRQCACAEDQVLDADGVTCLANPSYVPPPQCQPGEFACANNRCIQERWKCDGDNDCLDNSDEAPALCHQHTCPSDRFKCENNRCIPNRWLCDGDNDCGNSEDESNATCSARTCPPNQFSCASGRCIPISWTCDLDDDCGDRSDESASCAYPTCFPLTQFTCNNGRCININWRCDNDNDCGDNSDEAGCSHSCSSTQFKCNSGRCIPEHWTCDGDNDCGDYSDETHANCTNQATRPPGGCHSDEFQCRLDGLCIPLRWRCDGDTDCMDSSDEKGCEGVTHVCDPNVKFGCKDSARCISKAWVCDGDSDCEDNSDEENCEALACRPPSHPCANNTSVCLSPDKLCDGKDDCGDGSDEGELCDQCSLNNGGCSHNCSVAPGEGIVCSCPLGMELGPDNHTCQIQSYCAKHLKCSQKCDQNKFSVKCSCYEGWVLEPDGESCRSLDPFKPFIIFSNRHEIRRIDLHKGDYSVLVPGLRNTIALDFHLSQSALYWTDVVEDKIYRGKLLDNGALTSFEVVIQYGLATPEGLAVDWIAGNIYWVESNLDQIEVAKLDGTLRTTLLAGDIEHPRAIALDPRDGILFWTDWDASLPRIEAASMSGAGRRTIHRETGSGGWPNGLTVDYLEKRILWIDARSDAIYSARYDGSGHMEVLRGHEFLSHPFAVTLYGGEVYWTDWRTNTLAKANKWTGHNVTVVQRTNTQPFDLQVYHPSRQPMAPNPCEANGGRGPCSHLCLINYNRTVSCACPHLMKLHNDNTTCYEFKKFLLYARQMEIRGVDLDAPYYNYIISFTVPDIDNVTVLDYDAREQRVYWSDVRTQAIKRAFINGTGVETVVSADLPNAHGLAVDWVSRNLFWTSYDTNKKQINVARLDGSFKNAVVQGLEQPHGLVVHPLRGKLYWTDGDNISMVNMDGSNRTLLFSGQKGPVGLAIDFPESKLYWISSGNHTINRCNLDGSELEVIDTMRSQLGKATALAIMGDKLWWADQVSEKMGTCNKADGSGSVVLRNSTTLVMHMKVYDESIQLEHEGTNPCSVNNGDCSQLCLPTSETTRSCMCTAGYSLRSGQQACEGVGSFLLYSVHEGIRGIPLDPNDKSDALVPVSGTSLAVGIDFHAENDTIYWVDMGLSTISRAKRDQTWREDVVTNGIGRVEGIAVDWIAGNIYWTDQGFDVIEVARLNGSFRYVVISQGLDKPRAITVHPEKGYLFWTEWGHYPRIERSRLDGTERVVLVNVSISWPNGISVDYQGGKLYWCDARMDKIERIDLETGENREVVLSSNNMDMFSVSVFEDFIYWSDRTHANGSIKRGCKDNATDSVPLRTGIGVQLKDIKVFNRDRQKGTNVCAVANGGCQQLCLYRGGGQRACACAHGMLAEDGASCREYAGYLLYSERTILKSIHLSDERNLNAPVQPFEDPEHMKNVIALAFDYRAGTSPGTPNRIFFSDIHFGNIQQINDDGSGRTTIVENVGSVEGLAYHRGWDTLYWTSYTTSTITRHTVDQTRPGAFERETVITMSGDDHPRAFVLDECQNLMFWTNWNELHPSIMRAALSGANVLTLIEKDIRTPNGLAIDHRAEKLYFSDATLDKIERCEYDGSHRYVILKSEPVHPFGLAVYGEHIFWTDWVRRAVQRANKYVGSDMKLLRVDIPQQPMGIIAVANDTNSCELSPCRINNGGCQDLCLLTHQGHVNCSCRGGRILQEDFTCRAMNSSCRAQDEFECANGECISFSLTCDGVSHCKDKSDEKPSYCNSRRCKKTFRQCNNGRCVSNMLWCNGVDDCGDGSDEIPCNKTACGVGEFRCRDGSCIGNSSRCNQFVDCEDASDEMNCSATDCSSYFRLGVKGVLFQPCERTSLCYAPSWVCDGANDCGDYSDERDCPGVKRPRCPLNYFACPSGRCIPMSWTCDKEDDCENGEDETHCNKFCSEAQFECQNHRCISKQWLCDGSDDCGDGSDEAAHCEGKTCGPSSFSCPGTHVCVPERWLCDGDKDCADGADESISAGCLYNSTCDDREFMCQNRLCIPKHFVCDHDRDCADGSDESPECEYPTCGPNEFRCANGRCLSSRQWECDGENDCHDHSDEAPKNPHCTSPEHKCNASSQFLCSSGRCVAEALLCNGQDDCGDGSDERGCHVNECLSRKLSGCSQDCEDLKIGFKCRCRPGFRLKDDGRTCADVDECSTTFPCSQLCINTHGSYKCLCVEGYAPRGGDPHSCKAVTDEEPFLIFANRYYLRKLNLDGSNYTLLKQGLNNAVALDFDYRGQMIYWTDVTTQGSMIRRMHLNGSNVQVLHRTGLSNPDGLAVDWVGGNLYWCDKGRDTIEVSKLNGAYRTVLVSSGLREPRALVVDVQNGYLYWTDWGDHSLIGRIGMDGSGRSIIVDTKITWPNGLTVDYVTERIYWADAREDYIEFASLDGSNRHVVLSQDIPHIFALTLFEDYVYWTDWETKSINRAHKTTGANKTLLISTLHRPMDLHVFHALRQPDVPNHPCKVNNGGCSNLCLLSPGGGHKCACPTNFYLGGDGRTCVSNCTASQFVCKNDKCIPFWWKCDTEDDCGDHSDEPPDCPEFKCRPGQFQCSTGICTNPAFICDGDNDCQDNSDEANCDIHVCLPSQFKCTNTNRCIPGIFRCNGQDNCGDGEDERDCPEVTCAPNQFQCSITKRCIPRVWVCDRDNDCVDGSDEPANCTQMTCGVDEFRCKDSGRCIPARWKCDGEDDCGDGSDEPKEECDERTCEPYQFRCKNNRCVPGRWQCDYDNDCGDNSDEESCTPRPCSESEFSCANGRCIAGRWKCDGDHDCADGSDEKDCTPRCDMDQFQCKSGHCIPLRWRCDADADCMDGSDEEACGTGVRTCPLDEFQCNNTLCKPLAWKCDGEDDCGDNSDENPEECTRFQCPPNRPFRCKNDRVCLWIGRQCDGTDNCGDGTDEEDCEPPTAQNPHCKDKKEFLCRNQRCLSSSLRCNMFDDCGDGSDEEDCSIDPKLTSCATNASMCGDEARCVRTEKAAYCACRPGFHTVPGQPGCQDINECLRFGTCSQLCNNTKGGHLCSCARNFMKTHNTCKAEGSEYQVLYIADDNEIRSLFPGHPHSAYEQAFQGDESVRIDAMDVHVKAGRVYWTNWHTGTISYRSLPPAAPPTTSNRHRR
T1 sequence (G3V928 3945-4545 partner limits assumed): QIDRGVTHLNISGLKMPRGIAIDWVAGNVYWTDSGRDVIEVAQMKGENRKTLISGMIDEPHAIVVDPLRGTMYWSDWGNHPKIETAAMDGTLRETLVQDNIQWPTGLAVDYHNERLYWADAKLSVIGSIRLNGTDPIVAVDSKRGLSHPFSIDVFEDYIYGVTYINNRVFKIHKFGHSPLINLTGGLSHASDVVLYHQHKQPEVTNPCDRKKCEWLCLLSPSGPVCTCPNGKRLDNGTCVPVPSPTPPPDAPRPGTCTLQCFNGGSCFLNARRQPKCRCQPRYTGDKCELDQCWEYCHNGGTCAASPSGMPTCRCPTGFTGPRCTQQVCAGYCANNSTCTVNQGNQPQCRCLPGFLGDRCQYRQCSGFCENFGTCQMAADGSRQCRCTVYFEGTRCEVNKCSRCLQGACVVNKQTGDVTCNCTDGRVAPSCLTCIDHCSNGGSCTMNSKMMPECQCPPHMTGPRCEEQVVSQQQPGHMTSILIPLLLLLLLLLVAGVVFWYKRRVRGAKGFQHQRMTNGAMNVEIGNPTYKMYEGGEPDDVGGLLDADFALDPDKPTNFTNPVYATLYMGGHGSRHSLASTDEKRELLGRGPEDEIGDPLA

A1AT: alpha-1 antitrypsin, the prototypical SERPIN
STAT6 phosphorylation (STAT6): STAT6 was phosphorylated in vehicle and A1AT treated cells

EI-tPA: Recombinant human EI-tPA, derivative of tissue-type plasminogen activator, known LRP1 agonist [reference compound]
activation of ERK1/2 in cells transfected with LRP1-specific siRNA (LRP1; 48 h after transfection): ERK1/2 was not activated
activation of ERK1/2 in cells transfected with NTC siRNA (LRP1; 48 h after transfection): also robustly activated ERK1/2
capsaicin induced acute pain-related behavior (time spent licking) (C57BL/6J mice): blocked the capsaicin induced acute pain-related behavior

FPKMVPQFNTELKIFPEVNIK (FPKMVPQFNTELKIFPEVNIK) [SP34, reference compound]
NFκB activity (NFκB inducible SEAP in supernatant) (NFκB [1]): neither the scrambled core control peptide nor the AAT 0-36 fragment decreased the NFκB activity

NGF: NGF-β purchased from Sigma, cell signaling control [reference compound]
activation of ERK1/2 (cell signaling control) (LRP1; 0.36 nM, 10 min): also activated ERK1/2

RRRVKFNKPFVFLMIEQNTKRRR (RRRVKFNKPFVFLMIEQNTKRRR) [SP21]
NFκB activity (NFκB inducible SEAP in supernatant) (NFκB [1]): NFkB inhibition increased as well relative to SP16

R R R V K F N K P F V F L M R R R (RRRVKFNKPFVFLMRRR) [SP22]
NFκB activity (NFκB inducible SEAP in supernatant) (NFκB [1]): the NFκB activity was significantly reduced

R R R V R F N R P F L R R R (RRRVRFNRPFLRRR) [SP32]
NFκB activity (NFκB inducible SEAP in supernatant) (NFκB [1]): could not be restored with the poly arginine flanks

Receptor associated protein expressed as a glutathione-S-transferase fusion protein (GST-RAP)
block of SP163M-induced phospho-Akt and phospho-ERK1/2 in PC12 cells (immunoblot); concentration of RAP used [2]: 150 nM

SIPPEVKFNKPFVFLMIEQNTKSPLFMGKVVNP (SIPPEVKFNKPFVFLMIEQNTKSPLFMGKVVNP; SP16 peptide core sequence including the LRP1 binding site; listed as Homo sapiens) [SP8, reference compound]
NFκB activity (NFκB inducible SEAP in supernatant) (NFκB [1]): neither the scrambled core control peptide nor the AAT 0-36 fragment decreased the NFκB activity
NFkB induction by the peptide alone (NFκB [3]): showed NFkB inducible properties without the need for LPS

V K F N K P F V F L M (VKFNKPFVFLM) [SP20]
NFκB activity (NFκB inducible SEAP in supernatant) (NFκB [1]): did not have an inhibitory effect

V K F N K P F V F L M I E Q N T K (VKFNKPFVFLMIEQNTK; SP16 peptide core sequence including the LRP1 binding site; listed as Homo sapiens)
NFκB activity (NFκB inducible SEAP in supernatant) (NFκB [1]): capable of reducing NFκB activity
activation of ERK1/2 over time (LRP1; 240 nM, 0-30 min): robustly activated ERK1/2 from 5 to 30 min
lowest concentration activating phospho-ERK1/2 (LRP1; 10 min): 24 nM
activation of ERK1/2 in cells transfected with NTC siRNA (LRP1; 48 h after transfection): ERK1/2 was robustly activated
disease improvement (dermatitis score, ear volume) (mice [4]; topical solution (1%) in 70% ethanol, 14-day period, vs vehicle): a significant improvement in disease vs. vehicle-treated mice
pruritis (number of scratches) (mice [4]; topical, vs vehicle (MC903) treated mice): significantly reduces pruritis compared to vehicle (MC903) treated mice
systemic (serum) and local (ear) TSLP (TSLP [5]): a significant reduction in systemic (serum) and local (ear) TSLP compared to MC903 treated mice
IL-4 release in the skin tissue (IL-4): significantly reduced in SP16-treated animals
PAR2 protein expression in ears (PAR2): PAR2 and TSLP inhibition
Poly I:C mediated TSLP release (TSLP [6]): effective in significantly reducing Poly I:C mediated TSLP and CCL26 release
CCL26 release (CCL26; EPC2 cells stimulated with IL-13): significantly reduced CCL26 release dose dependently
Poly I:C mediated CCL26 release (CCL26; SPINK7 knockout esophageal cells): effective in significantly reducing Poly I:C mediated TSLP and CCL26 release
CCL24 in BALF (CCL24): significantly reduces CCL24 following OVA-challenge in sensitized mice
IL-1a in BALF (IL-1a): significantly reduces IL-1a following OVA-challenge in sensitized mice
IL-2 in BALF (IL-2): significantly reduces IL-2 following OVA-challenge in sensitized mice
eosinophil infiltration into the lungs (BALF) (mice [7]): significantly (p=0.04) reduces eosinophil infiltration into the lungs

V R F N R P F L (VRFNRPFL) [SP31]
NFκB activity (NFκB inducible SEAP in supernatant) (NFκB [1]): the anti-inflammatory activity of the peptide was lost
